Results on two compounds are retold here after patent US11000710B2, “Composition and method for the generation of chlorine dioxide from the oxidative consumption of biomolecules” (priority 2009, dated 2021).

SMILES strings stand for the structures.

This data set in a line: Level of HClO2 and ClO2^• producible from ClO2^− as a function of pH. The data set is classed as physicochemical.

Turning to `[O][Cl+][O-]` [ClO2^•, chlorine dioxide], the “total ClO2^• producible, maximum percentage of total oxyhalogen oxidant” value is no more than 0.32% (pH 4.50) and no more than 0.0010% (pH 7.00).

For `[O-][Cl+]O` [HClO2], the “level of HClO2 generated, of total available oxyhalogen oxidant” value is, setting by setting: (pH 4.50) 0.64%; (pH 7.00) 0.0020%.
